These results are taken from patent publication US20260085062A1, “NOVEL COMPOUNDS AS CK2 INHIBITORS” (Cambridge Enterprise Limited, priority 2022, published 2026).

The target of test [1] is T1, CK2α (Homo sapiens, UniProt P68400).
T1 construct: CK2α (residues 2-329) was produced in Escherichia coli BL21 (DE3) for kinase activity screening; His6 (N, cleaved yes); made in house; host or cells: Escherichia coli BL21 (DE3)
T1 sequence (P68400 2-329): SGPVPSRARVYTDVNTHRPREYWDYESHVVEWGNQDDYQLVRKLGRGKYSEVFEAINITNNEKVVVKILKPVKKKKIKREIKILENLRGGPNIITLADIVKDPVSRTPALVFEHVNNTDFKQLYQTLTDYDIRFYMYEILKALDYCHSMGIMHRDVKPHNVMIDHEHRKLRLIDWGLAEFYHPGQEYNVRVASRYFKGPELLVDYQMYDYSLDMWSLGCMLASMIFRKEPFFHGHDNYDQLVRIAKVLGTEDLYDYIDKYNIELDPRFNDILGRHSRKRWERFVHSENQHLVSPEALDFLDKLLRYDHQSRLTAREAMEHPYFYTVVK
Briefly: Biochemical assay for inhibitors of CK2α kinase activity (ADP-Glo). The note with it: 0.2 nM CK2α, 50 μM peptide substrate, 15 μM ATP, read-out: Assay 1: CK2α Enzyme IC50.

The target in test [2] is T2, CLK2 (Homo sapiens, UniProt P49760).
T2 construct: purchased Carna Biosciences 04-127
T2 sequence (P49760 whole entry): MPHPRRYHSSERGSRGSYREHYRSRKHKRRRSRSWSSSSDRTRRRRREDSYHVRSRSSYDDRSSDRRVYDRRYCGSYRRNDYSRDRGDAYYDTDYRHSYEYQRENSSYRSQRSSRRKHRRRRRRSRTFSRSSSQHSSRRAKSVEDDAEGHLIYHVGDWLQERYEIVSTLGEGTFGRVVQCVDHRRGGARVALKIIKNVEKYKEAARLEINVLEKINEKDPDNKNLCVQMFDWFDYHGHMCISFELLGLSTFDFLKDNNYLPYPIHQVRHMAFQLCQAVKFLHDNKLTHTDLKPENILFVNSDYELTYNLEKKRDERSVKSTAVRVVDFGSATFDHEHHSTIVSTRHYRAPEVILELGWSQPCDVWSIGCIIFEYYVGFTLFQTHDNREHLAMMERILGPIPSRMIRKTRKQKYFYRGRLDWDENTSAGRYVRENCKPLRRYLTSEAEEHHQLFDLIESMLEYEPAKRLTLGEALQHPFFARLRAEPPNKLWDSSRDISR
As to the kind of experiment: Biochemical assay for inhibitors of CLK2 kinase activity (ADP-Glo). The note with it: 20 nM CLK2, 50 μM peptide substrate, 100 μM ATP, read-out: Assay 2: CLK2 Enzyme IC50.

Test [3] has as its target T3, intracellular CK2α (Homo sapiens, UniProt P19784).
T3 construct: host or cells: HCT116 (ATCC CCL-247)
Briefly: Cell-based NanoBRET assay for inhibitor binding to intracellular CK2α. The note with it: HCT116 cells transiently transfected with CSNK2A2-NanoLuc fusion vector; Tracer K-5; 2 h; read-out: Assay 3: NanoBRET ™ assay for binding to intracellular CK2α. The method in brief: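 Living cells expressing NanoLuc-CK2α fusion were given a fixed tracer concentration, and compounds competitively displaced the reversibly bound tracer. Donor (450 nm) and acceptor (610 or 630 nm) emissions were read; BRET ratio = (acceptor/donor)×1,000, giving apparent intracellular affinity.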
For orientation: In BRET a luciferase serves as donor, and the signal depends on an acceptor being close.

T3 sequence (P19784 whole entry): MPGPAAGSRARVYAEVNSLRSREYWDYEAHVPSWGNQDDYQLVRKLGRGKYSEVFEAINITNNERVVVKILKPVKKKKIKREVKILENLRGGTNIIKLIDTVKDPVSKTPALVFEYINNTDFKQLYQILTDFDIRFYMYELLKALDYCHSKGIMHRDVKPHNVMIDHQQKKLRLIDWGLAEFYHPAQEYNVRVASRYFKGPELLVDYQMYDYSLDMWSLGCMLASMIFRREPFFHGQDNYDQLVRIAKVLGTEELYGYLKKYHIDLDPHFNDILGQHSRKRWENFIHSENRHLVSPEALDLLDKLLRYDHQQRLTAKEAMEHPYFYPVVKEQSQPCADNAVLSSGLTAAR

Consider `N#CCc1cccc(CNCCC(=O)NCCCNc2cc(-n3cnnc3)cc3[nH]ncc23)c1` [Example 47, N-(3-((6-(4H-1,2,4-triazol-4-yl)-1H-indazol-4-yl)amino)propyl)-3-((3-(cyanomethyl)benzyl)amino)propanamide], for which the IC50 worked out at 2.65 nM in test [1], 133 nM in test [2] and 12000 nM in test [3].

Take `O=C(COCCCCNCc1ccc(OC(F)(F)F)c(Cl)c1)Nc1cc(-n2cnnc2)cc2[nH]ncc12` [Example 48, N-(6-(4H-1,2,4-triazol-4-yl)-1H-indazol-4-yl)-2-(4-((3-chloro-4-(trifluoromethoxy)benzyl)amino)butoxy)acetamide]: the results for the IC50 in test [1], in test [2] and in test [3] were 20.3 nM, 993 nM and 2750 nM, respectively.

In the case of `FC(F)(F)c1ccc2[nH]c(CNCCCCOCCNc3cc(-n4cnnc4)cc4[nH]ncc34)cc2c1` [Example 49, 6-(4H-1,2,4-triazol-4-yl)-N-(2-(4-(((5-(trifluoromethyl)-1H-indol-2-yl)methyl)amino)butoxy)ethyl)-1H-indazol-4-amine], the IC50 in test [1] stood at 0.44 nM; in test [2] it was 90.5 nM; in test [3], 106 nM.

As to `Cn1c(CNCCCCOCCNc2cc(-n3cnnc3)cc3[nH]ncc23)cc2ccc(Cl)cc21` [Example 50, N-(2-(4-(((6-chloro-1-methyl-1H-indol-2-yl)methyl)amino)butoxy)ethyl)-6-(4H-1,2,4-triazol-4-yl)-1H-indazol-4-amine], the values for the IC50 in test [1], in test [2] and in test [3] were 2.2 nM, 94 nM and 153 nM, respectively.

`Cn1c(CNCCCCOCCNc2cc(-n3cnnc3)cc3[nH]ncc23)cc2cc(C(F)(F)F)ccc21` [Example 51, N-(2-(4-(((1-methyl-5-(trifluoromethyl)-1H-indol-2-yl)methyl)amino)butoxy)ethyl)-6-(4H-1,2,4-triazol-4-yl)-1H-indazol-4-amine]: the figures for the IC50 in test [1], in test [2] and in test [3] were 0.71 nM, 225 nM and 72.1 nM, respectively.

As for `Clc1ccc2cc(CNCCCCOCCNc3cc(-n4cnnc4)cc4[nH]ncc34)[nH]c2c1` [Example 52, N-(2-(4-(((6-chloro-1H-indol-2-yl)methyl)amino)butoxy)ethyl)-6-(4H-1,2,4-triazol-4-yl)-1H-indazol-4-amine], the IC50 is 1.43 nM in test [1], 38.4 nM in test [2] and 294 nM in test [3].

As to `c1cc2[nH]c(CNCCCCOCCNc3cc(-n4cnnc4)cc4[nH]ncc34)cc2cc1OC1CCC1` [Example 53, N-(2-(4-(((5-cyclobutoxy-1H-indol-2-yl)methyl)amino)butoxy)ethyl)-6-(4H-1,2,4-triazol-4-yl)-1H-indazol-4-amine], the figures for the IC50 in test [1], in test [2] and in test [3] were 0.33 nM, 119 nM and 159 nM, respectively.

For the compound `c1cc2[nH]c(CNCCCCOCCOc3cc(-c4cnoc4)cc4[nH]ncc34)cc2cc1OC1CCC1` [Example 54, N-((5-cyclobutoxy-1H-indol-2-yl)methyl)-4-(2-((6-(isoxazol-4-yl)-1H-indazol-4-yl)oxy)ethoxy)butan-1-amine], the IC50 in test [1] is 1.44 nM; in test [2] it was 217 nM; in test [3], 128 nM.

For `c1cc(-c2cc(OCCOCCCCNCc3cc4cc(OC5CCC5)ccc4[nH]3)c3cn[nH]c3c2)cnn1` [Example 55, N-((5-cyclobutoxy-1H-indol-2-yl)methyl)-4-(2-((6-(pyridazin-4-yl)-1H-indazol-4-yl)oxy)ethoxy)butan-1-amine], the IC50 in test [1] was found to be 1.25 nM; in test [2], 4740 nM; in test [3], 149 nM.

Consider `FC(F)(F)c1ccc2[nH]c(CNCCCCOCCOc3cc(-c4ccnnc4)cc4[nH]ncc34)cc2c1` [Example 56, 4-(2-((6-(pyridazin-4-yl)-1H-indazol-4-yl)oxy)ethoxy)-N-((5-(trifluoromethyl)-1H-indol-2-yl)methyl)butan-1-amine], for which the IC50 in test [1] came to 6.59 nM; in test [2], 3150 nM; in test [3], 387 nM.
